In ChEMBL document CHEMBL3046253, “Design, synthesis and in vitro PDE4 inhibition activity of certain quinazolinone derivatives for treatment of asthma” (Med Chem Res, 2012):

Biological target: 3',5'-cyclic-AMP phosphodiesterase 4B (Homo sapiens) (UniProt Q07343)
Test: Inhibition of PDE4B2 (unknown origin) using FAM-cAMP as substrate at 10 uM after 60 min by fluorescence polarization assay

Chain of 3',5'-cyclic-AMP phosphodiesterase 4B (Homo sapiens) (Q07343 whole entry): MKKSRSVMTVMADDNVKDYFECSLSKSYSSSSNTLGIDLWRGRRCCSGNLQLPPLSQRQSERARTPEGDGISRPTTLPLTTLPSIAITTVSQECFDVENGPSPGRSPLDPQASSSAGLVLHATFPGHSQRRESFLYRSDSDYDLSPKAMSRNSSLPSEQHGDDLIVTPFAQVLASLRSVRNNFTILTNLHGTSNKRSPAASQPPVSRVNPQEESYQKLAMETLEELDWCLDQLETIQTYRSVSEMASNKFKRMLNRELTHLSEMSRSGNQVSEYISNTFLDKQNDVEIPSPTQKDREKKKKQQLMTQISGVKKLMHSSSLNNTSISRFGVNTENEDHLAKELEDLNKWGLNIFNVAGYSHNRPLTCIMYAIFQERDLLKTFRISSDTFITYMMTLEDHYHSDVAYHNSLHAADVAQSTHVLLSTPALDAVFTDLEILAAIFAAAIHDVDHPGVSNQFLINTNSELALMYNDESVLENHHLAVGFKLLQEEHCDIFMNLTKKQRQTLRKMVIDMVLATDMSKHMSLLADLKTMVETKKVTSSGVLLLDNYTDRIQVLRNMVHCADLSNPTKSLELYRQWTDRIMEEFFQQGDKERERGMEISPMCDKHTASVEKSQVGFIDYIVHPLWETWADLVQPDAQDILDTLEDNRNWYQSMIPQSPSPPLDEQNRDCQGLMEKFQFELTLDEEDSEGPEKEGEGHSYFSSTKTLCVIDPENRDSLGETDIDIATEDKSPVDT

| Structure (SMILES) | inhibition |
| --- | --- |
| CCCCn1c(=O)c2ccccc2n2c(-c3cccc(O)c3)nnc12 | 44% |
| CCCCn1c(=O)c2ccccc2n2c(-c3ccc(N(C)C)cc3)nnc12 | 6% |
| CCCCn1c(N/N=C/c2ccc(N(C)C)cc2)nc2ccccc2c1=O | 19% |
| CCCCn1c(=O)c2ccccc2n2c(-c3cccc([N+](=O)[O-])c3)nnc12 | 44% |
| COc1ccc(C2CNC(=O)C2)cc1OC1CCCC1 (stereo not given) | 90% |

Next, values leading:

| inhibition | Structure (SMILES) |
| --- | --- |
| 7% | CCCCN1C(=O)c2ccccc2NC1c1ccc(N(C)C)cc1 (stereo not given) |
| 62% | CCCCn1c(=O)c2ccccc2n2c(-c3ccc(O)c(OC)c3)nnc12 |
| 11% | CCCCn1c(N/N=C/c2cccc(O)c2)nc2ccccc2c1=O |
| 15% | CCCCN1C(=O)c2ccccc2NC1c1ccc(O)c(OC)c1 (stereo not given) |
| 15% | CCCCN1C(=O)c2ccccc2NC1c1cccc([N+](=O)[O-])c1 (stereo not given) |
